Reference: PubChem BioAssay AID1259407 (Chemical Carcinogenesis Research Information System (CCRIS), 2018)
Calls of active or inactive are those of the source. The rule behind the calls is not given here.

System: CCRIS mutagenicity, Ames/micronucleus/aberration tests
Test: CCRIS mutagenicity studies
[1] = Test System: AMES SALMONELLA TYPHIMURIUM, Strain/Indicator: TA97, Metabolic Activation: NONE, Method: PREINCUBATION
[2] = Test System: AMES SALMONELLA TYPHIMURIUM, Strain/Indicator: TA98, Metabolic Activation: NONE, Method: PREINCUBATION
[3] = Test System: AMES SALMONELLA TYPHIMURIUM, Strain/Indicator: TA98, Metabolic Activation: NONE, Method: STANDARD PLATE
[4] = Test System: AMES SALMONELLA TYPHIMURIUM, Strain/Indicator: TA100, Metabolic Activation: NONE, Method: PREINCUBATION
[5] = Test System: AMES SALMONELLA TYPHIMURIUM, Strain/Indicator: TA100, Metabolic Activation: NONE, Method: STANDARD PLATE
[6] = Test System: AMES SALMONELLA TYPHIMURIUM, Strain/Indicator: TA1535, Metabolic Activation: NONE, Method: PREINCUBATION

SMILES: O=c1[nH]c(=O)n([C@H]2C[C@H](O)[C@@H](CO)O2)cc1/C=C/Br
- mutagenic call [1]: inactive; negative
- mutagenic call (Test System: AMES SALMONELLA TYPHIMURIUM, Strain/Indicator: TA97, Metabolic Activation: RAT, LIVER, S-9, AROCLOR 1254, Method: PREINCUBATION): inactive; negative
- mutagenic call [2]: inactive; negative
- mutagenic call [3]: inactive; negative
- mutagenic call (Test System: AMES SALMONELLA TYPHIMURIUM, Strain/Indicator: TA98, Metabolic Activation: RAT, LIVER, S-9, AROCLOR 1254, Method: PREINCUBATION): inactive; negative
- mutagenic call (Test System: AMES SALMONELLA TYPHIMURIUM, Strain/Indicator: TA98, Metabolic Activation: RAT, LIVER, S-9, AROCLOR 1254, Method: STANDARD PLATE): inactive; negative
- mutagenic call [4]: inactive; negative
- mutagenic call [5]: inactive; negative
- mutagenic call (Test System: AMES SALMONELLA TYPHIMURIUM, Strain/Indicator: TA100, Metabolic Activation: RAT, LIVER, S-9, AROCLOR 1254, Method: PREINCUBATION): inactive; negative
- mutagenic call (Test System: AMES SALMONELLA TYPHIMURIUM, Strain/Indicator: TA100, Metabolic Activation: RAT, LIVER, S-9, AROCLOR 1254, Method: STANDARD PLATE): inactive; negative
- mutagenic call (Test System: AMES SALMONELLA TYPHIMURIUM, Strain/Indicator: TA102, Metabolic Activation: NONE, Method: PREINCUBATION): inactive; negative
- mutagenic call (Test System: AMES SALMONELLA TYPHIMURIUM, Strain/Indicator: TA102, Metabolic Activation: RAT, LIVER, S-9, AROCLOR 1254, Method: PREINCUBATION): inactive; negative
- mutagenic call (Test System: AMES SALMONELLA TYPHIMURIUM, Strain/Indicator: TA104, Metabolic Activation: NONE, Method: PREINCUBATION): inactive; negative
- mutagenic call (Test System: AMES SALMONELLA TYPHIMURIUM, Strain/Indicator: TA104, Metabolic Activation: RAT, LIVER, S-9, AROCLOR 1254, Method: PREINCUBATION): inactive; negative
- mutagenic call [6]: inactive; negative
- mutagenic call (Test System: AMES SALMONELLA TYPHIMURIUM, Strain/Indicator: TA1535, Metabolic Activation: NONE, Method: STANDARD PLATE): inactive; negative
- mutagenic call (Test System: AMES SALMONELLA TYPHIMURIUM, Strain/Indicator: TA1535, Metabolic Activation: RAT, LIVER, S-9, AROCLOR 1254, Method: PREINCUBATION): inactive; negative
- mutagenic call (Test System: AMES SALMONELLA TYPHIMURIUM, Strain/Indicator: TA1535, Metabolic Activation: RAT, LIVER, S-9, AROCLOR 1254, Method: STANDARD PLATE): inactive; negative
- mutagenic call (Test System: AMES SALMONELLA TYPHIMURIUM, Strain/Indicator: TA1537, Metabolic Activation: NONE, Method: PREINCUBATION): inactive; negative
- mutagenic call (Test System: AMES SALMONELLA TYPHIMURIUM, Strain/Indicator: TA1537, Metabolic Activation: NONE, Method: STANDARD PLATE): inactive; negative
- mutagenic call (Test System: AMES SALMONELLA TYPHIMURIUM, Strain/Indicator: TA1537, Metabolic Activation: RAT, LIVER, S-9, AROCLOR 1254, Method: PREINCUBATION): inactive; negative
- mutagenic call (Test System: AMES SALMONELLA TYPHIMURIUM, Strain/Indicator: TA1537, Metabolic Activation: RAT, LIVER, S-9, AROCLOR 1254, Method: STANDARD PLATE): inactive; negative
- mutagenic call (Test System: AMES SALMONELLA TYPHIMURIUM, Strain/Indicator: TA1538, Metabolic Activation: NONE, Method: PREINCUBATION): inactive; negative
- mutagenic call (Test System: AMES SALMONELLA TYPHIMURIUM, Strain/Indicator: TA1538, Metabolic Activation: NONE, Method: STANDARD PLATE): inactive; negative
- mutagenic call (Test System: AMES SALMONELLA TYPHIMURIUM, Strain/Indicator: TA1538, Metabolic Activation: RAT, LIVER, S-9, AROCLOR 1254, Method: PREINCUBATION): inactive; negative
- mutagenic call (Test System: AMES SALMONELLA TYPHIMURIUM, Strain/Indicator: TA1538, Metabolic Activation: RAT, LIVER, S-9, AROCLOR 1254, Method: STANDARD PLATE): inactive; negative
- mutagenic call (Test System: CHINESE HAMSTER OVARY, Strain/Indicator: CHO-K1-BH4 (HGPRT), Metabolic Activation: NONE): inactive; negative
- mutagenic call (Test System: CHINESE HAMSTER V-79, Strain/Indicator: V-79/8-AZAGUANINE, Metabolic Activation: NONE): inactive; negative
- mutagenic call (Test System: MOUSE LYMPHOMA, Strain/Indicator: L5178Y (TK+/TK-), Metabolic Activation: NONE, Method: SUSPENSION/PLATE): active; positive
- mutagenic call (Test System: MOUSE LYMPHOMA, Strain/Indicator: L5178Y (TK+/TK-), Metabolic Activation: RAT, LIVER, S-9, AROCLOR 1254, Method: SUSPENSION/PLATE): inactive; negative
- mutagenic call (Test System: UDS RAT PRIMARY HEPATOCYTES, Strain/Indicator: THY INCORP (NON-S-PHASE), Metabolic Activation: NONE): inactive; negative
- mutagenic call (Test System: UDS RODENT HEPATOCYTES, Strain/Indicator: THY INCORP, Metabolic Activation: NONE): inactive; negative

SMILES: [Cl][Ga]([Cl])[Cl]
- mutagenic call [2]: inactive; negative
- mutagenic call (Test System: AMES SALMONELLA TYPHIMURIUM, Strain/Indicator: TA98, Metabolic Activation: RAT, LIVER, S-9 (10%), Method: PREINCUBATION): inactive; negative
- mutagenic call [4]: inactive; negative
- mutagenic call (Test System: AMES SALMONELLA TYPHIMURIUM, Strain/Indicator: TA100, Metabolic Activation: RAT, LIVER, S-9 (10%), Method: PREINCUBATION): inactive; negative

SMILES: Clc1cccc(-c2nc3ccccc3o2)c1
- mutagenic call [3]: inactive; negative

SMILES: Nc1cc(Cl)cc(S(=O)(=O)O)c1O
- mutagenic call (Test System: AMES SALMONELLA TYPHIMURIUM, Strain/Indicator: TA97, Metabolic Activation: HAMSTER, LIVER, S-9, AROCLOR 1254 (10 OR 30%), Method: PREINCUBATION): inactive; negative
- mutagenic call [1]: inactive; negative
- mutagenic call (Test System: AMES SALMONELLA TYPHIMURIUM, Strain/Indicator: TA97, Metabolic Activation: RAT, LIVER, S-9, AROCLOR 1254 (10 OR 30%), Method: PREINCUBATION): inactive; negative
- mutagenic call (Test System: AMES SALMONELLA TYPHIMURIUM, Strain/Indicator: TA98, Metabolic Activation: HAMSTER, LIVER, S-9, AROCLOR 1254 (10 OR 30%), Method: PREINCUBATION): inactive; negative
- mutagenic call [2]: inactive; negative
- mutagenic call (Test System: AMES SALMONELLA TYPHIMURIUM, Strain/Indicator: TA98, Metabolic Activation: RAT, LIVER, S-9, AROCLOR 1254 (10 OR 30%), Method: PREINCUBATION): inactive; negative
- mutagenic call (Test System: AMES SALMONELLA TYPHIMURIUM, Strain/Indicator: TA100, Metabolic Activation: HAMSTER, LIVER, S-9, AROCLOR 1254 (10 OR 30%), Method: PREINCUBATION): inactive; negative
- mutagenic call [4]: inactive; negative
- mutagenic call (Test System: AMES SALMONELLA TYPHIMURIUM, Strain/Indicator: TA100, Metabolic Activation: RAT, LIVER, S-9, AROCLOR 1254 (10 OR 30%), Method: PREINCUBATION): inactive; negative
- mutagenic call (Test System: AMES SALMONELLA TYPHIMURIUM, Strain/Indicator: TA1535, Metabolic Activation: HAMSTER, LIVER, S-9, AROCLOR 1254 (10 OR 30%), Method: PREINCUBATION): inactive; negative
- mutagenic call [6]: inactive; negative
- mutagenic call (Test System: AMES SALMONELLA TYPHIMURIUM, Strain/Indicator: TA1535, Metabolic Activation: RAT, LIVER, S-9, AROCLOR 1254 (10 OR 30%), Method: PREINCUBATION): inactive; negative

SMILES: C1=CC2OC2C=CO1 (stereo not given)
- mutagenic call [3]: inactive; negative
- mutagenic call (Test System: AMES SALMONELLA TYPHIMURIUM, Strain/Indicator: TA98, Metabolic Activation: RAT, LIVER, S-9, PHENOBARBITAL, Method: STANDARD PLATE): inactive; negative
- mutagenic call [5]: inactive; negative
- mutagenic call (Test System: AMES SALMONELLA TYPHIMURIUM, Strain/Indicator: TA100, Metabolic Activation: RAT, LIVER, S-9, PHENOBARBITAL, Method: STANDARD PLATE): inactive; negative
- mutagenic call (Test System: AMES SALMONELLA TYPHIMURIUM, Strain/Indicator: TM677/8-AZAGUANINE, Metabolic Activation: NONE, Method: STANDARD PLATE): inactive; negative

SMILES: CC1CN(/N=C/c2ccc([N+](=O)[O-])o2)C(=O)N1 (stereo not given)
- mutagenic call (Test System: AMES SALMONELLA TYPHIMURIUM, Strain/Indicator: TA100, Metabolic Activation: RAT, LIVER, S-9, KC500 OR PHENOBARBITAL, Method: LIQUID SUSPENSION): active; positive

SMILES: OC[C@H](O)CCl
- mutagenic call [2]: inactive; negative
- mutagenic call (Test System: AMES SALMONELLA TYPHIMURIUM, Strain/Indicator: TA98, Metabolic Activation: RAT, LIVER, S-9, KANECHLOR 500, Method: PREINCUBATION): inactive; negative
- mutagenic call [4]: active; positive
- mutagenic call (Test System: AMES SALMONELLA TYPHIMURIUM, Strain/Indicator: TA100, Metabolic Activation: RAT, LIVER, S-9, KANECHLOR 500, Method: PREINCUBATION): inactive; negative
- mutagenic call (Test System: AMES SALMONELLA TYPHIMURIUM, Strain/Indicator: TA100, Metabolic Activation: RAT, LIVER, S-9, PCB, Method: PREINCUBATION): active; positive
